Data taken from patent publication US20250325684A1, “POTENT ANTI-CANCER CYCLOTIDES” (University of Southern California, priority 2022, published 2025).
Numbered stars: 1 amine (or outer) side, 2 acyl side, 3 side chain; on linkers, the order of the positions; unused ones are H or OH. Bridge positions count the residues as written; N and C are the ends. Square brackets hold non-standard residues; d marks the D form. Peptide text beside a SMILES is read from it. I, II: the chains in the order shown. X1 = O=C(CCc1cn(CCOCCOCCOCCC(=O)[*:2])nn1)[*:1]; isoGln = NC(=O)[C@H](CCC(=O)[*:2])N[*:1]

What was measured:
NCl-H526 = assay: MTT cell viability, NCl-H526 cells; type: cell-based, human; details: NCl-H526 lung small cell carcinoma, p53 Null
Procedure: (§1) Cell viability assay in several human cancer cell lines (See Tables 1 to 10). Cell lines were cultured in RPMI 1640 (or recommended medium when indicated) medium supplemented with 10% fetal calf serum, penicillin (50 IU/mL) and streptomycin ([…]) at 37° C. in 5% CO2. Cell viability studies was carried using the MTT (3-(4,5-dimethylthiazol-2-yl)-2,5-diphenyltetrazolium bromide) assay as previously described (31). Briefly, ≈2×10^3 CRC cells were be seeded in 96-well microtiter plates in 100 μL RPMI 1640 in the presence of 10% calf serum. […] After 1 h, 210 μL/well of full complemented media was added, the cells were grown for 48 h and then treated with 20 μL of a solution of MTT (5 mg/mL) for 2 h. The medium was discarded and DMSO ([…]) was added to each well and incubated with gentle shaking for 20 min at room temperature. The absorbance at 595 nm of the solution is analyzed using a Tecan Genios Multifunctional Microplate Reader (Tecan System Inc) and the background at 670 nm subtracted. RNA-Seq analysis was performed using state-of-the-art bioinformatics tools. Briefly, raw RNA-Seq reads were mapped to human genome (hg38) using STAR aligner (v2.7.3a). Gencode Release 36 reference was used for annotation. Transcript and gene expression levels were quantified using the IsoEM (37) with default parameters. Counts per million (CPM) method is used for normalization. Differential expression was done using DESeq2 with default parameters. Genes involved in different biological pathways (human) were searched from Geneontology (http://geneontology.org/). Bioinformatics results can be validated by using Partek Flow (v10.0.21.0912), a bioinformatics pipeline developed by Zymo Research (https://www.zymoresearch.com/).
(§2) Cell viability was evaluated using the MTT assay as described above.

LNCaP = assay: MTT cell viability, LNCaP cells; type: cell-based; details: LNCaP prostate carcinoma, p53 WT, read-out: Cell viability, Human Prostate Cancer Cells
Procedure: (§3) Cell viability assay in several human cancer cell lines (See Tables 1 to 10). Cell lines were cultured in RPMI 1640 (or recommended medium when indicated) medium supplemented with 10% fetal calf serum, penicillin (50 IU/mL) and streptomycin ([…]) at 37° C. in 5% CO2. Cell viability studies was carried using the MTT (3-(4,5-dimethylthiazol-2-yl)-2,5-diphenyltetrazolium bromide) assay as previously described (31). Briefly, ≈2×10^3 CRC cells were be seeded in 96-well microtiter plates in 100 μL RPMI 1640 in the presence of 10% calf serum. After 24 h incubation the cells were washed with PBS and treated with 30 μL/well of PBS or RPMI 1640 (or recommended) media containing cyclotides MCo-52, MCoTI-I (used as negative control), nutlin-3a (used as positive control) or MI-77301 (used as positive control for p53-mutated or p53-null cells) at the indicated doses for 1 h at 37° C. in 5% CO2. After 1 h, 210 μL/well of full complemented media was added, the cells were grown for 48 h and then treated with 20 μL of a solution of MTT (5 mg/mL) for 2 h. The medium was discarded and DMSO ([…]) was added to each well and incubated with gentle shaking for 20 min at room temperature. The absorbance at 595 nm of the solution is analyzed using a Tecan Genios Multifunctional Microplate Reader (Tecan System Inc) and the background at 670 nm subtracted. RNA-Seq analysis was performed using state-of-the-art bioinformatics tools. Briefly, raw RNA-Seq reads were mapped to human genome (hg38) using STAR aligner (v2.7.3a). Gencode Release 36 reference was used for annotation. Transcript and gene expression levels were quantified using the IsoEM (37) with default parameters. Counts per million (CPM) method is used for normalization. Differential expression was done using DESeq2 with default parameters. Genes involved in different biological pathways (human) were searched from Geneontology (http://geneontology.org/). Bioinformatics results can be validated by using Partek Flow (v10.0.21.0912), a bioinformatics pipeline developed by Zymo Research (https://www.zymoresearch.com/).
(§4) Tables 1 through 10 show in vitro activity of cyclotide MCo-52-2-cTAT against different human cancer cell lines, some with null-, mutated, or wildtype p53 phenotypes. Cell viability was evaluated using the MTT assay as described above.

HL-60 = assay: MTT cell viability, HL-60 cells; type: cell-based, human; details: HL-60 adult acute myeloid leukemia, p53 Null
Procedure: as §1, with “Counts per million (CPM) method is used for normalization. Differential expression was done using DESeq2 with default parameters. Genes involved in different biological pathways (human) were searched from Geneontology (http://geneontology.org/). Bioinformatics results can be validated by using Partek Flow (v10.0.21.0912), a bioinformatics pipeline developed by Zymo Research (https://www.zymoresearch.com/).” left out
as §2

NCl-H1944 = assay: MTT cell viability, NCl-H1944 cells; type: cell-based, human; details: NCl-H1944 lung adenocarcinoma, p53 WT
Procedure: as §1, with “Counts per million (CPM) method is used for normalization. Differential expression was done using DESeq2 with default parameters. Genes involved in different biological pathways (human) were searched from Geneontology (http://geneontology.org/). Bioinformatics results can be validated by using Partek Flow (v10.0.21.0912), a bioinformatics pipeline developed by Zymo Research (https://www.zymoresearch.com/).” left out
as §2

NCl-A549 = assay: MTT cell viability, NCl-A549 cells; type: cell-based, human; details: NCl-A549 lung adenocarcinoma, p53 WT
Procedure: as §1, §2

U937 = assay: MTT cell viability, U937 cells; type: cell-based, human; details: U937 adult acute monocytic leukemia, p53 Mutant
Procedure: as §1, §2

NCl-H1975 = assay: MTT cell viability, NCl-H1975 cells; type: cell-based, human; details: NCl-H1975 lung adenocarcinoma, p53 Mutant
Procedure: as §1, with “Counts per million (CPM) method is used for normalization. Differential expression was done using DESeq2 with default parameters. Genes involved in different biological pathways (human) were searched from Geneontology (http://geneontology.org/). Bioinformatics results can be validated by using Partek Flow (v10.0.21.0912), a bioinformatics pipeline developed by Zymo Research (https://www.zymoresearch.com/).” left out
as §2

Jurkat = assay: MTT cell viability, Jurkat cells; type: cell-based, human; details: Jurkat childhood T acute lymphoblastic leukemia, p53 Mutant
Procedure: as §1, §2

MV4-11 = assay: MTT cell viability, MV4-11 cells; type: cell-based, human; details: MV4-11 childhood acute monocytic leukemia, p53 WT
Procedure: as §1, §2

NCl-H23 = assay: MTT cell viability, NCl-H23 cells; type: cell-based, human; details: NCl-H23 lung adenocarcinoma, p53 Mutant
Procedure: as §1, §2

A2780 = assay: MTT cell viability, A2780 ovarian cells; type: cell-based, human; details: p53 WT
Procedure: as §3, §4

NCl-H69 = assay: MTT cell viability, NCl-H69 cells; type: cell-based, human; details: NCl-H69 lung small cell carcinoma, p53 Mutant
Procedure: as §1, §2

NCl-H522 = assay: MTT cell viability, NCl-H522 cells; type: cell-based, human; details: NCl-H522 lung adenocarcinoma, p53 Mutant (Deletion)
Procedure: as §1, §2

NCl-H2347 = assay: MTT cell viability, NCl-H2347 cells; type: cell-based, human; details: NCl-H2347 lung adenocarcinoma, p53 Mutant
Procedure: as §1, with “Counts per million (CPM) method is used for normalization. Differential expression was done using DESeq2 with default parameters. Genes involved in different biological pathways (human) were searched from Geneontology (http://geneontology.org/). Bioinformatics results can be validated by using Partek Flow (v10.0.21.0912), a bioinformatics pipeline developed by Zymo Research (https://www.zymoresearch.com/).” left out
as §2

PANC-1 = assay: MTT cell viability, PANC-1 cells; type: cell-based, human; details: PANC-1 pancreatic ductal adenocarcinoma, p53 Mutant
Procedure: as §1, §2

4T1 = assay: MTT cell viability, 4T1 cells; type: cell-based; details: 4T1 murine breast cancer, p53 WT
Procedure: as §1, with “Counts per million (CPM) method is used for normalization. Differential expression was done using DESeq2 with default parameters. Genes involved in different biological pathways (human) were searched from Geneontology (http://geneontology.org/). Bioinformatics results can be validated by using Partek Flow (v10.0.21.0912), a bioinformatics pipeline developed by Zymo Research (https://www.zymoresearch.com/).” left out
as §2

MIA PaCa-2 = assay: MTT cell viability, MIA PaCa-2 cells; type: cell-based, human; details: MIA PaCa-2 pancreatic ductal adenocarcinoma, p53 Mutant
Procedure: as §1, §2

Row | Compound | EC50 (NCl-H526) [µM] | EC50 (LNCaP) [µM] | EC50 (HL-60) [µM] | EC50 (NCl-H1944) [µM] | EC50 (NCl-A549) [µM] | EC50 (U937) [µM] | EC50 (NCl-H1975) [µM] | EC50 (Jurkat) [µM] | EC50 (MV4-11) [µM] | EC50 (NCl-H23) [µM] | EC50 (A2780) [µM] | EC50 (NCl-H69) [µM] | EC50 (NCl-H522) [µM] | EC50 (NCl-H2347) [µM] | EC50 (PANC-1) [µM] | EC50 (4T1) [µM] | EC50 (MIA PaCa-2) [µM]
1 | COc1ccc(C2=N[C@@H](c3ccc(Cl)cc3)[C@@H](c3ccc(Cl)cc3)N2C(=O)N2CCNC(=O)C2)c(OC(C)C)c1 [Nutlin 3A] | > 100 | 19.7 ± 1.3 | 33.3 ± 4.4 | 22.1 | 6.6 ± 0.7 | > 50 | > 100 | 45.2 ± 2.4 | 0.7 ± 0.1 | > 50 | 9.3 ± 0.5 | > 50 | > 50 | 25.3 ± 5.5 | 41.9 ± 6.9 | 28.5 ± 8.6 | > 50
2 | N=C(N)NCCC[C@@H]1NC(=O)[C@@H](CCCNC(=N)N)NC(=O)[C@H](CCCCN)NC(=O)[C@@H](N)CCCCNC(=O)CC[C@@H](C(=O)O)NC(=O)[C@@H](CCCNC(=N)N)NC(=O)[C@H](CCCNC(=N)N)NC(=O)[C@@H](CCCCN)NC(=O)[C@H](CCCCN)NC(=O)[C@@H](CCCNC(=N)N)NC(=O)CNC(=O)[C@@H](CCCNC(=N)N)NC1=O [cTAT] (H-KK[dR]R[dR]G[dR]K[dK]R[dR]E-OH; lactam 1-12; N-terminus and C-terminus assumed) | > 100 | > 100 | > 100 | > 100 | > 100 | > 100 | > 100 | > 100 | > 100 | > 100 | > 100 | > 100 | > 100 | > 100 | > 100 | > 100 | > 100
3 | I: cyclo(ACICRHDSYCGSGSDGGVCPNLYLLCRRDKDCPG) / II: KK[dR]R[dR]G[dR]K[dK]R[dR][isoGln] (disulfide I:2-I:19, I:4-I:26, I:10-I:32; linker I:30-II:N via X1; lactam II:1-II:C) [Cyclotide 52-2-cTAT] | – | 6.3 ± 1.1 | – | – | – | – | – | – | – | – | 9.7 ± 0.5 | – | – | – | 20.5 ± 2.5 | – | 15.4 ± 1.6
